Common to all, as to test: whole-cell patch clamp
Format in all cases: cell-based
In general terms: Patch clamp records ionic current or voltage across a cell membrane.

The subject of one test is α6β2γ2 GABAA receptor. As to conditions: EC30 GABA (1 μM), -60 mV, pH 7.3, biphasic effect.
Test [1] deals with α1β2 GABAA receptor. The settings on record: EC30 GABA (0.5 μM), -60 mV, pH 7.3.
The subject of test [2] is α1β2 GABAA receptor. As to conditions: EC30 GABA, TM2 6' position, -60 mV, pH 7.3.
In the next test the test system is α3β2γ2 GABAA receptor. The settings on record: inhibition of current by EC30 GABA; -60 mV, pH 7.3, 22-25 °C; called competitive.

Regarding `O=C1Nc2ccc(Cl)cc2[C@@](C#CC2CC2)(C(F)(F)F)O1` [Efavirenz], the “% of control end-application current at 30 μM” value with α6β2γ2 GABAA receptor is 46 ± 6.1%; in the test with α1β2 GABAA receptor [1] it was 1.6 ± 1.7%; in the test with α1β2 GABAA receptor [2], 95 ± 18%. In addition, the IC50 – broadly, the concentration that gives 50% inhibition – in the test with α3β2γ2 GABAA receptor turned out to be 14 ± 6.3 µM.

(Values after article PMC5512161 (Neuropharmacology, 2017).)
